According to ChEMBL document CHEMBL4428130, “Novel benzoquinoline derivatives via unpredicted condensation of ethyl propiolate and naphthylamines: Synthesis and topoisomerase inhibition activity” (2016):
Activity calls are given as the source filed them. The calls are words filed in the database; no cut-off is given here.

What was measured:
[1] = system: HepG2; test: Growth inhibition of human HepG2 cells after 72 hrs by trypan blue assay; type: functional; conditions: HepG2, 72 h
[2] = system: HL-60; test: Growth inhibition of human HL60 cells after 72 hrs by trypan blue assay; type: functional; conditions: HL-60, 72 h
[3] = target: DNA topoisomerase 2-alpha (Homo sapiens) (UniProt P11388); test: Inhibition of human recombinant topoisomerase-2 alpha expressed in Escherichia coli assessed as reduction in supercoiled pBR322 DNA relaxation after 60 mins by ethidium bromide staining based agarose gel electrophoresis
[4] = target: DNA topoisomerase 2-alpha (Homo sapiens) (UniProt P11388); test: Poison activity at human recombinant topoisomerase-2 alpha expressed in Escherichia coli assessed as generation of linear DNA using supercoiled pBR322 DNA at 100 to 200 uM after 60 mins by ethidium bromide staining based agarose gel electrophoresis
[5] = system: Salmon testes DNA; test: Binding affinity to Salmon testis DNA assessed as drug-DNA complex formation at drug:DNA ratio of 0.08 at 310 to 380 nanometer by linear flow dichroism method; type: nucleic-acid assay; conditions: Salmonidae
[6] = system: HeLa; test: Growth inhibition of human HeLa cells after 72 hrs by trypan blue assay; type: functional
[7] = target: DNA topoisomerase 2-alpha (Homo sapiens) (UniProt P11388); test: Poison activity at human recombinant topoisomerase-2 alpha expressed in Escherichia coli assessed as generation of linear DNA using supercoiled pBR322 DNA at 8 uM after 60 mins by ethidium bromide staining based agarose gel electrophoresis
[8] = target: DNA topoisomerase 2-alpha (Homo sapiens) (UniProt P11388); test: Inhibition of human recombinant topoisomerase-2 alpha expressed in Escherichia coli assessed as reduction in supercoiled pBR322 DNA relaxation at 8 uM after 60 mins by ethidium bromide staining based agarose gel electrophoresis

Chain of DNA topoisomerase 2-alpha (Homo sapiens) (P11388 whole entry): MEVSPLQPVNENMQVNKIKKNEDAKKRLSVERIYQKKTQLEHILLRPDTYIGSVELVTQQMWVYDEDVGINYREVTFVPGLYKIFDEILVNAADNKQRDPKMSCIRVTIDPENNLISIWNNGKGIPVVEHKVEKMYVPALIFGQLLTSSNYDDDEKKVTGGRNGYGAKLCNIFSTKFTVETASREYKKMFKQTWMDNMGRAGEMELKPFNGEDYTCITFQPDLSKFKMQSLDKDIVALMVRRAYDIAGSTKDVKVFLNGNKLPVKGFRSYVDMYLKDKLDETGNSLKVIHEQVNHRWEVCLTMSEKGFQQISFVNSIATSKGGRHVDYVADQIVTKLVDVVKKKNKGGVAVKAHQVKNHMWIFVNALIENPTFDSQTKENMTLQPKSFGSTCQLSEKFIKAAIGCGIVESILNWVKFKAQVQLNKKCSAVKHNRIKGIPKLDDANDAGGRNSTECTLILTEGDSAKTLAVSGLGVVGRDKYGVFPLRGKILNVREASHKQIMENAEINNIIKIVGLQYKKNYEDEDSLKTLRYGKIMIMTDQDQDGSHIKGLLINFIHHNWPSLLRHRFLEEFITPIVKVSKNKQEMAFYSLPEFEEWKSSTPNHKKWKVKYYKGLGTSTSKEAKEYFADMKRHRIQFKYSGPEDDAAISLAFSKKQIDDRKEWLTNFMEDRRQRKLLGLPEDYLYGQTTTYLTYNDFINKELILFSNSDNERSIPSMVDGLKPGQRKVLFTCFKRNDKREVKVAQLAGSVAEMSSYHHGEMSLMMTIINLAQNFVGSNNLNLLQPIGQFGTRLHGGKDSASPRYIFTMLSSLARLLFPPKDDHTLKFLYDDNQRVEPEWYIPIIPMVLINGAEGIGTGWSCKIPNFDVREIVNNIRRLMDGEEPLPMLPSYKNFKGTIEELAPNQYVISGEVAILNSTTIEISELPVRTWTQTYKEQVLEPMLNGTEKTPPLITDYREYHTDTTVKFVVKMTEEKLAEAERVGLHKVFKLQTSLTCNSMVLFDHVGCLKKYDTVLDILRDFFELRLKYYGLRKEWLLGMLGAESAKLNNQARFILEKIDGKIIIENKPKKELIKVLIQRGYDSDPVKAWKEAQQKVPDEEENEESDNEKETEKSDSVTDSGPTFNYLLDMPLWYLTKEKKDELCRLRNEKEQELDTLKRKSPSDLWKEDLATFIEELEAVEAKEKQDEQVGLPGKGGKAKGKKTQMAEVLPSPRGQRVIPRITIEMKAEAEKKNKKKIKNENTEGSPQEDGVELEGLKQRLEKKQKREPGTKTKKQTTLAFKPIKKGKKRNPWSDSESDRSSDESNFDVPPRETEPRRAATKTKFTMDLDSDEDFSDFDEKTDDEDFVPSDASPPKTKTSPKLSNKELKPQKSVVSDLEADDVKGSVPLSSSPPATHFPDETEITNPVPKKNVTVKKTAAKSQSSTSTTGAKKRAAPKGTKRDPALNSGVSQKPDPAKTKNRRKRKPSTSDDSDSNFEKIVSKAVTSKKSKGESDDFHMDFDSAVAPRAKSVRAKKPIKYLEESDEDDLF

Row | Structure (SMILES) | GI50 [1] [µM] | GI50 [2] [µM] | inhibition [3] | Activity [4] | Activity [5] | GI50 [6] [µM] | Activity [7] | inhibition [8]
1 | CN(C)CCNC(=O)c1cnc2ccc3ccccc3c2c1 | 27.8 | 24.1 | Dose-dependent effect | inactive | Active | > 50 | – | –
2 | CN(C)CCN1CCN(C(=O)c2cnc3ccc4ccccc4c3c2)CC1 | > 50 | > 50 | – | – | – | > 50 | – | –
3 | CN(C)CCN1CCN(C(=O)c2cnc3c(ccc4ccccc43)c2)CC1 | > 50 | > 50 | – | – | – | > 50 | – | –
4 | COc1cc(NS(C)(=O)=O)ccc1Nc1c2ccccc2nc2ccccc12 | – | – | – | – | – | – | Active | Active
5 | CCOC(=O)c1cnc2c(ccc3ccccc32)c1 | ≥ 50 | > 50 | – | – | – | > 50 | – | –
6 | CN(C)CCNC(=O)c1cnc2c(ccc3cc4c(cc32)OCCO4)c1 | > 50 | 30 | – | – | – | > 50 | – | –
7 | CCOC(=O)c1cnc2ccc3ccccc3c2c1 | ≥ 50 | ≥ 50 | – | – | – | > 50 | – | –
8 | O=C(NCCN1CCOCC1)c1cnc2c(ccc3cc4c(cc32)OCCO4)c1 | > 50 | 32.5 | – | – | – | > 50 | – | –
9 | CCOC(=O)c1cnc2c(ccc3cc4c(cc32)OCCO4)c1 | > 50 | > 50 | – | – | – | > 50 | – | –
10 | CN(C)CCN1CCN(C(=O)c2cnc3c(ccc4cc5c(cc43)OCCO5)c2)CC1 | 39.4 | 33.8 | – | – | – | > 50 | – | –
11 | O=C(NCCN1CCOCC1)c1cnc2c(ccc3ccccc32)c1 | > 50 | > 50 | – | – | – | > 50 | – | –
12 | CN(C)CCNC(=O)c1cnc2c(ccc3ccccc32)c1 | 32.2 | 29.8 | – | – | – | > 50 | – | –
13 | O=C(NCCN1CCOCC1)c1cnc2ccc3ccccc3c2c1 | > 50 | > 50 | – | – | – | > 50 | – | –
